Assay results reported in ChEMBL document CHEMBL4814005, “Pragmatic recruitment of memantine as the capping group for the design of HDAC inhibitors: A preliminary attempt to unravel the enigma of glioblastoma” (Eur J Med Chem, 2021).
Calls of active or inactive are those of the source. The calls are words filed in the database; no cut-off is given here.

What follows are compounds tested on U-87 MG (assay: Antiproliferation activity against human U-87 MG cells assessed as growth inhibition measured after 1 hr by MTT assay). Details: not given.
Assay type: functional, cell-based, U-87MG ATCC

Row | SMILES | IC50
1 | CC12CC3CC(C)(C1)CC(NCc1cccc(NC(=O)CCCCCCC(=O)NO)c1)(C3)C2 | 1.4 µM
2 | CC12CC3CC(C)(C1)CC(NS(=O)(=O)c1cccc(/C=C/C(=O)NO)c1)(C3)C2 | 2.21 µM
3 | CC12CC3CC(C)(C1)CC(NCc1ccc(C(=O)NO)cc1)(C3)C2 | 45.2 µM
4 | CC12CC3CC(C)(C1)CC(NCc1ccc(NCc4ccc(C(=O)NO)cc4)cc1)(C3)C2 | 2.4 µM
5 | CC12CC3CC(C)(C1)CC(NC(=O)CCCCCC(=O)NO)(C3)C2 | 16.1 µM
6 | CC12CC3CC(C)(C1)CC(NCc1ccc(/C=C/C(=O)NO)cc1)(C3)C2 | 1.87 µM

What follows are compounds tested on U-87 MG (assay: Antiproliferation activity against human U-87 MG cells assessed as growth inhibition at 10 uM after 3 days by MTT assay). Details: 72 h, time 3 day.
Assay type: functional, U-87MG ATCC

Row | SMILES | inhibition at 10 µM
7 | CC12CC3CC(C)(C1)CC(NCc1cccc(NC(=O)CCCCCCC(=O)NO)c1)(C3)C2 | 90%
8 | CC12CC3CC(C)(C1)CC(NS(=O)(=O)c1cccc(/C=C/C(=O)NO)c1)(C3)C2 | 90%
9 | CC12CC3CC(C)(C1)CC(NCc1ccc(NCc4ccc(C(=O)NO)cc4)cc1)(C3)C2 | 90%
10 | CC12CC3CC(C)(C1)CC(NCc1ccc(/C=C/C(=O)NO)cc1)(C3)C2 | 90%

These compounds were tested on U-87 MG (assay: Antiproliferation activity against TMZ resistant human U-87 MG R-50 cells assessed as growth inhibition at 3 uM by MTT assay). Details: U-87MG ATCC.
Assay type: functional, cell-based

Row | SMILES | Activity
11 | CC12CC3CC(C)(C1)CC(NCc1ccc(/C=C/C(=O)NO)cc1)(C3)C2 | inactive

These compounds were tested on Glioblastoma cell line (assay: Antiproliferation activity against TMZ resistant human glioblastoma cell P1S assessed as growth inhibition at 3 uM by MTT assay). Details: not given.
Assay type: functional

Row | SMILES | Activity
12 | CC12CC3CC(C)(C1)CC(NCc1ccc(/C=C/C(=O)NO)cc1)(C3)C2 | inactive

What follows are compounds tested on A 172 (assay: Induction of cell cycle arrest in human A 172 cells assessed as accumulation at G2/M phase by propidium iodide staining based flow cytometric analysis). Details: dose microM <=10.
Assay type: functional

Row | SMILES | Activity
13 | CC12CC3CC(C)(C1)CC(NCc1ccc(/C=C/C(=O)NO)cc1)(C3)C2 | Dose-Dependent Effect

Each compound was assayed on A 172 (assay: Induction of cell cycle arrest in human A 172 cells assessed as accumulation at G0/G1 phase by propidium iodide staining based flow cytometric analysis). Details: dose microM <=10.
Assay type: functional

Row | SMILES | Activity
14 | CC12CC3CC(C)(C1)CC(NCc1ccc(/C=C/C(=O)NO)cc1)(C3)C2 | Dose-Dependent Effect

Each compound was assayed on A 172 (assay: Induction of apoptosis in human A 172 cells assessed as upregulation of activated caspase 3 protein at 3 uM after 24 hrs by western blot analysis). Details: not given.
Assay type: functional, cell-based

Row | SMILES | Activity
15 | CC12CC3CC(C)(C1)CC(NCc1ccc(/C=C/C(=O)NO)cc1)(C3)C2 | Active

Each compound was assayed on A 172 (assay: Induction of apoptosis in human A 172 cells assessed as upregulation of cleaved PARP at 3 uM after 24 hrs by western blot analysis). Details: not given.
Assay type: functional, cell-based

Row | SMILES | Activity
16 | CC12CC3CC(C)(C1)CC(NCc1ccc(/C=C/C(=O)NO)cc1)(C3)C2 | Active

These compounds were tested against Histone deacetylase 1 (Homo sapiens, UniProt Q13547) (assay: Inhibition of human recombinant HDAC1 expressed in baculovirus infected insect cells using [RHKK(Ac)] fluorogenic substrate). Details: not given.
Histone deacetylase 1, sequence (Q13547 whole entry): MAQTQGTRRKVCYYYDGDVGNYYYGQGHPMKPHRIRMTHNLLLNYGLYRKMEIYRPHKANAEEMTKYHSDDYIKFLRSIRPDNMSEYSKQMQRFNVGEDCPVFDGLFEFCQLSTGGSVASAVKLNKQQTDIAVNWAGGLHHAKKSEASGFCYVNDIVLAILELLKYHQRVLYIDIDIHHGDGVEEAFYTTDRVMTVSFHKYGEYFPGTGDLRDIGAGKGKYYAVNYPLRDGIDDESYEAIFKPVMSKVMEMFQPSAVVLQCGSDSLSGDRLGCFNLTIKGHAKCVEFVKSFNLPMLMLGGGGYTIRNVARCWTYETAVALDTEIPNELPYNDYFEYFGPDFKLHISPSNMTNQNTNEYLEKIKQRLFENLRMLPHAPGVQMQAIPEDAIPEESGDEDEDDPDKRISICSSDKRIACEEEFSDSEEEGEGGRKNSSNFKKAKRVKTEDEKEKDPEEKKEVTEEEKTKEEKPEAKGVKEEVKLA

Row | SMILES | IC50
17 | CC12CC3CC(C)(C1)CC(NCc1cccc(NC(=O)CCCCCCC(=O)NO)c1)(C3)C2 | 0.679 µM
18 | CC12CC3CC(C)(C1)CC(NS(=O)(=O)c1cccc(/C=C/C(=O)NO)c1)(C3)C2 | 1.74 µM
19 | CC12CC3CC(C)(C1)CC(NCc1ccc(NCc4ccc(C(=O)NO)cc4)cc1)(C3)C2 | 11 µM
20 | CC12CC3CC(C)(C1)CC(NC(=O)CCCCCC(=O)NO)(C3)C2 | 16.1 µM

The compounds below were run against Histone deacetylase 3 (Homo sapiens, UniProt O15379) (assay: Inhibition of human recombinant HDAC3 using [RHKK(Ac)] fluorogenic substrate). Details: not given.
Histone deacetylase 3, sequence (O15379 whole entry): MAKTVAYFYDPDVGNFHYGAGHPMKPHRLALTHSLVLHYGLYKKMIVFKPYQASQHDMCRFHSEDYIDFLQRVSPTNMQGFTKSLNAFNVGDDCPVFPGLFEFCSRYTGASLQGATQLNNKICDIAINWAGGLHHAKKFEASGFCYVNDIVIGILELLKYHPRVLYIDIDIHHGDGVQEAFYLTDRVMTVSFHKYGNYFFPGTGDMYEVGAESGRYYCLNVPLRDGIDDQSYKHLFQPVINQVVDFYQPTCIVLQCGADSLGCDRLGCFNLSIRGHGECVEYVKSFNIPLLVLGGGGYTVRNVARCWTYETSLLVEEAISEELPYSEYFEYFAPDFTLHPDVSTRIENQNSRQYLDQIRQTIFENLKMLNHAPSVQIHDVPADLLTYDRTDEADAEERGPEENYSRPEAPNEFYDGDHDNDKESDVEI

Row | SMILES | IC50
21 | CC12CC3CC(C)(C1)CC(NCc1cccc(NC(=O)CCCCCCC(=O)NO)c1)(C3)C2 | 0.652 µM
22 | CC12CC3CC(C)(C1)CC(NS(=O)(=O)c1cccc(/C=C/C(=O)NO)c1)(C3)C2 | 2.89 µM
23 | CC12CC3CC(C)(C1)CC(NCc1ccc(/C=C/C(=O)NO)cc1)(C3)C2 | 2.81 µM

These compounds were tested against T1, Protein deacetylase HDAC6 (Homo sapiens, UniProt Q9UBN7) (assay: Inhibition of human recombinant HDAC6 expressed in baculovirus infected insect cells using [RHKK(Ac)] fluorogenic substrate). Details: not given.
T1 sequence (Q9UBN7 whole entry): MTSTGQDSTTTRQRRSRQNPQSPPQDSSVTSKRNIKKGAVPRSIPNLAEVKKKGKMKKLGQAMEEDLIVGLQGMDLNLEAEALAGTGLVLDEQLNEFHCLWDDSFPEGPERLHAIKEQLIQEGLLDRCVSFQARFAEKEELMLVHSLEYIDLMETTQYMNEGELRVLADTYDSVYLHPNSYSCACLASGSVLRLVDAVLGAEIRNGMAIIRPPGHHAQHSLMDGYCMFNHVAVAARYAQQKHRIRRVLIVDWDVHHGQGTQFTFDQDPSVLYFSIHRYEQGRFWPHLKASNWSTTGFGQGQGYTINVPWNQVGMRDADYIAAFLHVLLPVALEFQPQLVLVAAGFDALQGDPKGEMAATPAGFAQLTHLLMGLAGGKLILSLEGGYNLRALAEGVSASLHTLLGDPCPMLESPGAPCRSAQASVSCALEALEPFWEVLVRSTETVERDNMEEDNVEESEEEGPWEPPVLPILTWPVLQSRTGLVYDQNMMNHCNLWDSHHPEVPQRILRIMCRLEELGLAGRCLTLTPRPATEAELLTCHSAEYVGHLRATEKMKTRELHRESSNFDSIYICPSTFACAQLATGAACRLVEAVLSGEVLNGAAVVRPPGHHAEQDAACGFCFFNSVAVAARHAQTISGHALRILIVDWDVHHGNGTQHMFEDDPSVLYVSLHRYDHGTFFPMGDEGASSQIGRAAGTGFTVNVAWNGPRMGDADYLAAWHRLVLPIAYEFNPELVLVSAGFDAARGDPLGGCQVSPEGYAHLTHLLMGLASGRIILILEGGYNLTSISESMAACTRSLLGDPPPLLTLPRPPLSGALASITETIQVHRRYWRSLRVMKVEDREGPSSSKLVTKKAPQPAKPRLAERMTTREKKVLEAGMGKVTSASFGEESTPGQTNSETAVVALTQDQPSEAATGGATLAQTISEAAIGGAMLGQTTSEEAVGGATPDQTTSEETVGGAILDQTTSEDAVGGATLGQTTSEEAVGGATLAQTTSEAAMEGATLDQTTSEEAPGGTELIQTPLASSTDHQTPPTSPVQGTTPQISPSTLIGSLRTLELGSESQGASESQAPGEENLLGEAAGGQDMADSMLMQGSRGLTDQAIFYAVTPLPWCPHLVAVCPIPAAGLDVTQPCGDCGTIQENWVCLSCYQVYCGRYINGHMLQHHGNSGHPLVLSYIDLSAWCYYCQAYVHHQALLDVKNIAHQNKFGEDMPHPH

Row | SMILES | IC50
24 | CC12CC3CC(C)(C1)CC(NCc1cccc(NC(=O)CCCCCCC(=O)NO)c1)(C3)C2 | 0.0608 µM
25 | CC12CC3CC(C)(C1)CC(NS(=O)(=O)c1cccc(/C=C/C(=O)NO)c1)(C3)C2 | 0.0937 µM
26 | CC12CC3CC(C)(C1)CC(NCc1ccc(C(=O)NO)cc1)(C3)C2 | 3.2 µM
27 | CC12CC3CC(C)(C1)CC(NCc1ccc(NCc4ccc(C(=O)NO)cc4)cc1)(C3)C2 | 0.0768 µM
28 | CC12CC3CC(C)(C1)CC(NC(=O)CCCCCC(=O)NO)(C3)C2 | 0.206 µM
29 | CC12CC3CC(C)(C1)CC(NCc1ccc(/C=C/C(=O)NO)cc1)(C3)C2 | 0.077 µM

What follows are compounds tested against T2, Histone deacetylase 8 (Homo sapiens, UniProt Q9BY41) (assay: Inhibition of human recombinant HDAC8 using [RHKK(Ac)] fluorogenic substrate). Details: not given.
T2 sequence (Q9BY41 whole entry): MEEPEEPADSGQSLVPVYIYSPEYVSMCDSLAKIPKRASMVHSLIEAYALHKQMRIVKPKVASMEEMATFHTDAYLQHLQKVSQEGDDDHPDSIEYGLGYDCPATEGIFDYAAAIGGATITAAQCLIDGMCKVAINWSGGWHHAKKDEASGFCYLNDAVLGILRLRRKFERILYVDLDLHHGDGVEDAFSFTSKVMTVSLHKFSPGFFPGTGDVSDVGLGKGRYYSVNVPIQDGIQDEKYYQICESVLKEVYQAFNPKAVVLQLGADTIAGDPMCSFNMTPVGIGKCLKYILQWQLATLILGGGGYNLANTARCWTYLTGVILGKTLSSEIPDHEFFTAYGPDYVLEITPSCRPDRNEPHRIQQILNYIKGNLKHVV

Row | SMILES | IC50
30 | CC12CC3CC(C)(C1)CC(NCc1cccc(NC(=O)CCCCCCC(=O)NO)c1)(C3)C2 | 0.703 µM
31 | CC12CC3CC(C)(C1)CC(NS(=O)(=O)c1cccc(/C=C/C(=O)NO)c1)(C3)C2 | 0.562 µM
32 | CC12CC3CC(C)(C1)CC(NCc1ccc(C(=O)NO)cc1)(C3)C2 | 8.63 µM
33 | CC12CC3CC(C)(C1)CC(NCc1ccc(NCc4ccc(C(=O)NO)cc4)cc1)(C3)C2 | 15.3 µM
34 | CC12CC3CC(C)(C1)CC(NC(=O)CCCCCC(=O)NO)(C3)C2 | 4.14 µM
35 | CC12CC3CC(C)(C1)CC(NCc1ccc(/C=C/C(=O)NO)cc1)(C3)C2 | 1.03 µM

These compounds were tested on A 172 (assay: Induction of cell cycle arrest in human A 172 cells assessed as sub-G1 population upto 10 uM after 2 days by flow cytometry/PI staining assay). Details: dose microM <=10, time 2.0 day.
Assay type: functional, cell-based

Row | SMILES | Activity
36 | CC12CC3CC(C)(C1)CC(NCc1ccc(/C=C/C(=O)NO)cc1)(C3)C2 | Active
